# Laboratory results published in US20080008724A1 (Statens Serum Institute, priority 2006, published 2008).
# Test system: IFN-γ producing T cells
# Assay: IFN-γ secretion (ELISA) of blood cells from mice vaccinated with TB10.4 antigens, stimulated with TB10.4 peptides
# Assay type: in vivo
# Details: for specific T-cell response (IFN-γ secretion, ELISA) after vaccination with the individual peptide: mice vaccinated three times with individual TB10.4 peptide in DDA/TDB, cells stimulated with 0.5 μg/ml of the same peptide
molecule,measurement,setting,value
TB10.4-P1: amino acids 1 to 18 of SEQ ID NO: 2 (MSQIMYNYPAMLGHAGDM; listed as Mycobacterium tuberculosis),"specific T-cell response (IFN-γ secretion, ELISA) after vaccination with the individual peptide",,induced a specific T-cell response
TB10.4-P3: amino acids 21 to 38 of SEQ ID NO: 2 (YAGTLQSLGAEIAVEQAA; listed as Mycobacterium tuberculosis),"specific T-cell response (IFN-γ secretion, ELISA) after vaccination with the individual peptide",,induced a specific T-cell response
"TB10.4: protein expressed by M. tuberculosis, recombinant (SEQ ID NO: 2) (protein, listed as Mycobacterium tuberculosis, X not resolved here) MSQIMYNYPAMLGHAGDMAGYAGTLQSLGAEIAVEQAALQSAWQGDTGITYQAWQAQWNQAMEDLVRAYHAMSSTHEANTMAMMARDTAEAAKWGGX","T-cell recognition of TB10.4 peptides P1-P9 (IFN-γ secretion, ELISA) after vaccination","mice vaccinated 3 times at 2-week intervals in DDA/TDB, blood cells two weeks after final vaccination, stimulated with 0.5 μg/ml of individual peptides",mainly induced P3 specific T cells
